The source of these data is ChEMBL document CHEMBL1129048, “A novel, picomolar inhibitor of human immunodeficiency virus type 1 protease” (J Med Chem, 1996).

In experiment [1] the target is Human immunodeficiency virus type 1 protease (Human immunodeficiency virus 1, UniProt Q72874). In words: Inhibitory activity against HIV-1 Protease.
Another experiment has as its system MT4. Kind of experiment: In vitro effective concentration against MT-4 cell line. Type of experiment: functional, cell-based. Particulars: Homo sapiens.

In experiment [1], `COc1cccc(CN2C(=O)N(Cc3cccc(OC)c3)N(Cc3ccccc3)C[C@@H](O)[C@H]2Cc2ccccc2)c1` showed a Ki of 0.22 nM. In the experiment on MT4, this molecule showed an EC50 of 930 nM.
The matching figures for `O=C1N(Cc2ccc(O)cc2)[C@H](Cc2ccccc2)[C@H](O)CN(Cc2ccccc2)N1Cc1ccc(O)cc1`: 0.07 nM and 10 nM.
The matching figures for `O=C1N(Cc2ccc(CO)cc2)[C@H](Cc2ccccc2)[C@H](O)CN(Cc2ccccc2)N1Cc1ccc(CO)cc1`: 0.22 nM and 90 nM.
Molecule `O=C1N(Cc2ccc(CO)cc2)[C@H](Cc2ccccc2)[C@H](O)CN(Cc2ccoc2)N1Cc1ccc(CO)cc1` gave a Ki in experiment [1] of 0.49 nM. Further, the response in the experiment with MT4 was half-maximal at 100 nM (EC50).
The matching figures for `COc1cc(CN2C(=O)N(CC3CC3)N(Cc3ccccc3)C[C@@H](O)[C@H]2Cc2ccccc2)ccc1O`: 0.062 nM and 170 nM.
The molecule `COc1cc(CN2C(=O)N(Cc3ccc(O)c(OC)c3)N(Cc3ccccc3)C[C@@H](O)[C@H]2Cc2ccccc2)ccc1O` showed an EC50 in the experiment with MT4 of 2 nM.
In experiment [1], `O=C1N(Cc2ccccc2)[C@H](Cc2ccccc2)[C@H](O)CN(Cc2ccccc2)N1Cc1ccccc1` displayed a Ki of 2 nM. The molecule further displayed an EC50 in the experiment on MT4 of 2860 nM.
The matching figures for `O=C1N(Cc2ccc(CO)cc2)[C@H](Cc2ccccc2)[C@H](O)[C@@H](O)[C@@H](Cc2ccccc2)N1Cc1ccc(CO)cc1` [DMP-323]: 0.23 nM and 30 nM.

The term Ki denotes a dissociation constant, usually derived from enzyme kinetics or from competition with a known ligand. What is called EC50 is the concentration that produces a half-maximal response. Higher therefore signals weaker potency.
